ChEMBL document CHEMBL2424579, “Quinazolin-4-one derivatives as selective histone deacetylase-6 inhibitors for the treatment of Alzheimer's disease” (J Med Chem, 2013)
The source made the active and inactive calls. The calls are words filed in the database; no cut-off is given here.

Tests used:
SH-SY5Y [1] = assay: Induction of neurite outgrowth in human SH-SY5Y cells after 5 days; format: functional, cell-based; conditions: 120 h
PC-12 [2] = assay: Induction of neurite outgrowth in rat PC12 cells after 5 days; format: functional, cell-based; conditions: PC-12, 120 h
SH-SY5Y [3] = assay: Increase of synaptic activity in human SH-SY5Y cells after 5 days by fluorescence assay; format: functional, cell-based; conditions: 120 h
Vero = assay: Cytotoxicity against african green monkey Vero cells at 25 uM; format: cell-based; conditions: chlorocebus sabaeus
PC-12 [4] = assay: Cytotoxicity against rat PC12 cells at 25 uM; format: cell-based; conditions: pc-12, 25 µM
[5] = Cytotoxicity against human SH-SY5Y cells at 25 uM; format: cell-based
PC-12 [6] = assay: Induction of neurite outgrowth in rat PC12 cells at 10 uM after 5 days; format: functional, cell-based
Histone deacetylase 1 = Histone deacetylase 1 (Homo sapiens, UniProt Q13547); assay: Inhibition of human recombinant HDAC1 expressed in baculovirus/sf9 cells using RHKKAc as substrate
[7] = molecular target: T1, Protein deacetylase HDAC6 (Homo sapiens, UniProt Q9UBN7); assay: Inhibition of human recombinant HDAC6 expressed in baculovirus/sf9 cells using RHKKAc as substrate
T1 sequence (Q9UBN7 whole entry): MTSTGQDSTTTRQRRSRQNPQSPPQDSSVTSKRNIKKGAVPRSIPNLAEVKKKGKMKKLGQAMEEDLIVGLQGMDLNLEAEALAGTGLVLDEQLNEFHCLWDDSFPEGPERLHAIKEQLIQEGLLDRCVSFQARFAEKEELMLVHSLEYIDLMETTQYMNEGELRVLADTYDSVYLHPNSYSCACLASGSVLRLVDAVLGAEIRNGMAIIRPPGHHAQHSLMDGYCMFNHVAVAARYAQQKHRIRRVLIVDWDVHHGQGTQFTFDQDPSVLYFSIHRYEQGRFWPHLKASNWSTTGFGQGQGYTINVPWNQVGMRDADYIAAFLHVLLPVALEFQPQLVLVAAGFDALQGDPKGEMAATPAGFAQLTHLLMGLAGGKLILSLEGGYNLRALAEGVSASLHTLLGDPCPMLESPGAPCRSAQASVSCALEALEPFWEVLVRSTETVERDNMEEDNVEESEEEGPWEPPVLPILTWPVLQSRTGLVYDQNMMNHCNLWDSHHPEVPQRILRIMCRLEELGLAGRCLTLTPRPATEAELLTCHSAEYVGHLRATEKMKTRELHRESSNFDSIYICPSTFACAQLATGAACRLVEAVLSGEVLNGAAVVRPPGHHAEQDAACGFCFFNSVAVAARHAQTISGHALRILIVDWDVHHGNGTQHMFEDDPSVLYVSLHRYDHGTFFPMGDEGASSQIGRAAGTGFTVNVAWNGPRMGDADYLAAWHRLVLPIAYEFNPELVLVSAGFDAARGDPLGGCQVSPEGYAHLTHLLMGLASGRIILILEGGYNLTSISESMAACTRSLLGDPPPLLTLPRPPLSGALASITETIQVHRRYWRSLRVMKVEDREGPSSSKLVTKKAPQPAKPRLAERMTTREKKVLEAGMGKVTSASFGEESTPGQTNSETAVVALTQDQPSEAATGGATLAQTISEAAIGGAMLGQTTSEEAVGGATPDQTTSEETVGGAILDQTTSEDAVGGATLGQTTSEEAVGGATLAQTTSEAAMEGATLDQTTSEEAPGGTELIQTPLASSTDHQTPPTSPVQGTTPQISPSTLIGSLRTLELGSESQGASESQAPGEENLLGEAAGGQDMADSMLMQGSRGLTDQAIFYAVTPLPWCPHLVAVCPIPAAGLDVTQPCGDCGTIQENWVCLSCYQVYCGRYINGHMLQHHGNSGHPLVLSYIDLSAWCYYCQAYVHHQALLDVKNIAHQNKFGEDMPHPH

SH-SY5Y [8] = assay: Induction of neurite outgrowth in human SH-SY5Y cells at 10 uM after 5 days; format: functional, cell-based
[9] = molecular target: T2, Amyloid-beta precursor protein (Homo sapiens, UniProt P05067); assay: Inhibition of amyloid beta aggregation (unknown origin) after 4 hrs by thioflavin S assay in absence of Zn2+
[10] = molecular target: T2, Amyloid-beta precursor protein; assay: Inhibition of amyloid beta aggregation (unknown origin) after 4 hrs by thioflavin S assay in presence of Zn2+
Histone deacetylase 11 = molecular target: T3, Histone deacetylase 11 (Homo sapiens, UniProt Q96DB2); assay: Inhibition of human recombinant HDAC11 expressed in baculovirus/sf9 cells using RHKKAc as substrate
T3 sequence (Q96DB2 whole entry): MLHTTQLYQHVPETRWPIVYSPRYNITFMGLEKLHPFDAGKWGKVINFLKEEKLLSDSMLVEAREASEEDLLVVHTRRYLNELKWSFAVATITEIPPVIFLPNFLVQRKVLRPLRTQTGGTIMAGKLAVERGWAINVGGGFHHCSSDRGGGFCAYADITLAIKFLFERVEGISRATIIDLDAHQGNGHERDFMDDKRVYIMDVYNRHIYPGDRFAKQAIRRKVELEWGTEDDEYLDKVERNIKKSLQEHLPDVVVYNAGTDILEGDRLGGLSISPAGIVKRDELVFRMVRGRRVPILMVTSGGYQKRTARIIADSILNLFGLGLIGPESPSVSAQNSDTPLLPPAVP

PC-12 [11] = assay: Increase of synaptic activity in rat PC12 cells after 5 days by fluorescence assay; format: functional, cell-based; conditions: PC-12, 120 h
Histone deacetylase 2 = Histone deacetylase 2 (Homo sapiens, UniProt Q92769); assay: Inhibition of human recombinant HDAC2 expressed in baculovirus/sf9 cells using RHKKAc as substrate
Histone deacetylase 8 = molecular target: T4, Histone deacetylase 8 (Homo sapiens, UniProt Q9BY41); assay: Inhibition of human recombinant HDAC8 expressed in baculovirus/sf9 cells using RHKAcKAc as substrate
T4 sequence (Q9BY41 whole entry): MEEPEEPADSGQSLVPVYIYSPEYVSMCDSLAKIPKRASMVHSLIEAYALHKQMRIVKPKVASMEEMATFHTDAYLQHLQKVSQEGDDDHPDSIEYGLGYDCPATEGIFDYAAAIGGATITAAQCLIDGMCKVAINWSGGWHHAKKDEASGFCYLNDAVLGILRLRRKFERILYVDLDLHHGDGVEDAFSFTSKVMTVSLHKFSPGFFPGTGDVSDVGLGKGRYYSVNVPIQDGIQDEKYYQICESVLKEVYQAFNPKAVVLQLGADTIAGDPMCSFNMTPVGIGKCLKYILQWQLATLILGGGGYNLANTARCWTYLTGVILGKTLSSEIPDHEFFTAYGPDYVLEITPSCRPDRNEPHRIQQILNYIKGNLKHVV

Homo sapiens [12] = species on record: Homo sapiens; assay: Selectivity index, ratio of IC50 for human recombinant HDAC8 to IC50 for human recombinant HDAC6
Homo sapiens [13] = species on record: Homo sapiens; assay: Selectivity index, ratio of IC50 for human recombinant HDAC1 to IC50 for human recombinant HDAC6
[14] = molecular target: Poly [ADP-ribose] polymerase 1 (Homo sapiens) (UniProt P09874); assay: Inhibition of PARP1 (unknown origin) up to 25 uM
PC-12 [15] = assay: Induction iof GAP-43 protein expression in rat PC12 cells after 48 hrs by Western blotting analysis; format: functional, cell-based

Histone deacetylase 1, sequence (Q13547 whole entry): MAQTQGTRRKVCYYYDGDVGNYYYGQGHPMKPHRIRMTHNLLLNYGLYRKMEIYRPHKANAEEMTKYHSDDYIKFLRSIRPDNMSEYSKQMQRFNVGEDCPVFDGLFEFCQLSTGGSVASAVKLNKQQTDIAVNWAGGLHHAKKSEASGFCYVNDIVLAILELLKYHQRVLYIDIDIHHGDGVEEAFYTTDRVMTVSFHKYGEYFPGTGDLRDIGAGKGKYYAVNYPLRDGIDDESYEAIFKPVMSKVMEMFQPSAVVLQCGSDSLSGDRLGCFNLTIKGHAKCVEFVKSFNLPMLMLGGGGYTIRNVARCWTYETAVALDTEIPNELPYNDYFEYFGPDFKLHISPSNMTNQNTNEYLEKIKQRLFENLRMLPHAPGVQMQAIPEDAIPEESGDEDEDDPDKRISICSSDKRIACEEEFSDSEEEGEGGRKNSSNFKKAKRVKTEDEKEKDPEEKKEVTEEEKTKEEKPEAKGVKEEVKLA
Histone deacetylase 2, sequence (Q92769 whole entry): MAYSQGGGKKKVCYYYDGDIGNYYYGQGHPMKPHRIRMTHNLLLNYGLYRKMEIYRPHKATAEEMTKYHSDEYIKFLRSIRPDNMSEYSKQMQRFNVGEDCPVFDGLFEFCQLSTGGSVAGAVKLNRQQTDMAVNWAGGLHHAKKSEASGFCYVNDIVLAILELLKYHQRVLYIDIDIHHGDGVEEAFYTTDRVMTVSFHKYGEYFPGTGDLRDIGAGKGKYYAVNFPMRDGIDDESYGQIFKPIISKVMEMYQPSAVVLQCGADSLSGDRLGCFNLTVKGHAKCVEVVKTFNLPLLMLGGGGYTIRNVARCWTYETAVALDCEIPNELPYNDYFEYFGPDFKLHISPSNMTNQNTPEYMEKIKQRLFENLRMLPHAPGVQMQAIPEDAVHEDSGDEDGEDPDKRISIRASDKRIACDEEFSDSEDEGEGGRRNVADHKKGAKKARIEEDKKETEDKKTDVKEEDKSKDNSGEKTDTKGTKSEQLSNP
T2 sequence (P05067 whole entry): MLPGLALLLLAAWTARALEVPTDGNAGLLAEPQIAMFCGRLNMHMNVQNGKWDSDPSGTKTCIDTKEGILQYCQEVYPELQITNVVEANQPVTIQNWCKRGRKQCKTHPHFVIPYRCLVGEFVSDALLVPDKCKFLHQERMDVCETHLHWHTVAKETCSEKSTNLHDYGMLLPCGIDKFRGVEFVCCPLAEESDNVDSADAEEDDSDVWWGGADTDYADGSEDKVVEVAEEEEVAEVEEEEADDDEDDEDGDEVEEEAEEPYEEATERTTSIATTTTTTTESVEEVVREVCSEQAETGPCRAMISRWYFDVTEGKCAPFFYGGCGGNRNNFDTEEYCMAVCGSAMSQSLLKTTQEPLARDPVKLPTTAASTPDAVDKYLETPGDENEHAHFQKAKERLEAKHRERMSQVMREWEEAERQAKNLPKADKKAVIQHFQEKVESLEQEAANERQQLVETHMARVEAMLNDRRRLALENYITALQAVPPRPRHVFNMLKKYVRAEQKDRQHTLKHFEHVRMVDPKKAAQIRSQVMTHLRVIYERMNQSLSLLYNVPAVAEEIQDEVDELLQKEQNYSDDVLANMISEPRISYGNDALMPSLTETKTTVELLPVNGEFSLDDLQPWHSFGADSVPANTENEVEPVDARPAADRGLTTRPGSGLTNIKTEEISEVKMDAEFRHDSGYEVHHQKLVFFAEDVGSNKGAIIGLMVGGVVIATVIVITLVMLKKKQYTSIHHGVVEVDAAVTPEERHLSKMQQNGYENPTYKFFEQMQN
Poly [ADP-ribose] polymerase 1 (Homo sapiens), sequence (P09874 whole entry): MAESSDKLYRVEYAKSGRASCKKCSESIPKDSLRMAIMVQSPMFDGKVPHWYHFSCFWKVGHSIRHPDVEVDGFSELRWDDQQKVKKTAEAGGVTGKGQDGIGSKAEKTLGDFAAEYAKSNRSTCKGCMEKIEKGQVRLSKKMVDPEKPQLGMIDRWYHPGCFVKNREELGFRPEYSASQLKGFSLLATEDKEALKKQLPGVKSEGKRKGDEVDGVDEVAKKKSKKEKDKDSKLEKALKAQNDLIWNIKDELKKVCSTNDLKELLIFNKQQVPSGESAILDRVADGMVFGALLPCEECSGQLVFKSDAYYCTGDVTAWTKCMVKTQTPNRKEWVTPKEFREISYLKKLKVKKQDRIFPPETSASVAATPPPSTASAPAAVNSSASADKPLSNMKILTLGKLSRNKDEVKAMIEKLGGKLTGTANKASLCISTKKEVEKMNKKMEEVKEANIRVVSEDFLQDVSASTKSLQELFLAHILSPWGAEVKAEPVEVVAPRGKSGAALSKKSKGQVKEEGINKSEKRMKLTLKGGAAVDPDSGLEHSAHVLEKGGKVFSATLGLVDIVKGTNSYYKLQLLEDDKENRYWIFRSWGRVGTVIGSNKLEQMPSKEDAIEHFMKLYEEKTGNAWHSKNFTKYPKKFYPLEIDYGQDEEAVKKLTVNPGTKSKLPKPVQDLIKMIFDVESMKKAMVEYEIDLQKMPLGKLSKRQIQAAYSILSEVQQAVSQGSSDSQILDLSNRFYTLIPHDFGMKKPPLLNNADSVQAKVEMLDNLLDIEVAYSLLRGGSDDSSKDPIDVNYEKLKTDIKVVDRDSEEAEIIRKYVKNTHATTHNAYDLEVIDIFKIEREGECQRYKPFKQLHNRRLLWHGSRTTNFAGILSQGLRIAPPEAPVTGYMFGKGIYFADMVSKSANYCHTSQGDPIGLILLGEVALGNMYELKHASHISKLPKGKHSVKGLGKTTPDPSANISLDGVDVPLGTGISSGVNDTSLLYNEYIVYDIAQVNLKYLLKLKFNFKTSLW

IC50 [10] | Structure (SMILES) | EC50 (SH-SY5Y [1]) | EC50 (PC-12 [2]) | EC50 (SH-SY5Y [3]) | Activity (Vero) | Activity (PC-12 [4]) | Activity [5] | Activity (PC-12 [6]) | IC50 (Histone deacetylase 1) | IC50 [7] | Activity (SH-SY5Y [8]) | IC50 [9] | IC50 (Histone deacetylase 11) | EC50 (PC-12 [11]) | IC50 (Histone deacetylase 2) | IC50 (Histone deacetylase 8) | Ratio IC50 (Homo sapiens [12]) | Ratio IC50 (Homo sapiens [13]) | inhibition [14] | Activity (PC-12 [15])
 | O=C(/C=C/c1ccc2c(=O)n(CCc3ccccc3)c(C3CC3)nc2c1)NO | > 25 µM | 10.5 µM | > 25 µM | Non-toxic | Non-toxic | Non-toxic | Active | 0.433 µM | 0.041 µM | Active |  |  |  |  |  |  |  |  | 
7.7 µM | O=C(O)CN(CCN(CC(=O)O)CC(=O)O)CC(=O)O [EDETIC ACID] |  |  |  |  |  |  |  |  |  |  | 28.4 µM |  |  |  |  |  |  |  | 
43.7 µM | O=C(O)c1cccnc1 [NIACIN] |  |  |  |  |  |  |  |  |  |  | 13.1 µM |  |  |  |  |  |  |  | 
 | O=C(/C=C/c1ccc2c(=O)n(CCc3ccccc3)cnc2c1)NO | 15 µM | > 25 µM | 4.9 µM | Non-toxic | Non-toxic | Non-toxic | Active | 0.495 µM | 0.035 µM | Active | > 50 µM | 0.73 µM | 14.5 µM | 1.22 µM | 0.6 µM |  |  |  | 
 | CCc1nc2cc(Cl)c(/C=C/C(=O)NO)cc2c(=O)n1CCc1ccccc1 |  |  |  | Non-toxic | Non-toxic | Non-toxic |  | > 10 µM | 0.747 µM |  |  | > 30 µM |  | > 12 µM | 1.88 µM | 3 | > 13 |  | 
 | CCc1nc2cc(/C=C/C(=O)NO)c(F)cc2c(=O)n1CCc1ccccc1 |  |  |  | Non-toxic | Non-toxic | Non-toxic |  | 3 µM | 0.014 µM |  |  | 3.74 µM |  | > 10 µM | 1.4 µM | 100 | 214 |  | 
 | Cc1nc2cc(/C=C/C(=O)NO)ccc2c(=O)n1CCc1c[nH]c2ccccc12 |  |  |  | Non-toxic | Non-toxic | Non-toxic |  | 0.758 µM | 0.015 µM |  | > 50 µM | 1.21 µM |  | 2.21 µM | 1.59 µM | 106 | 51 |  | 
 | CC(C)c1nc2cc(/C=C/C(=O)NO)ccc2c(=O)n1CCc1ccccc1 | 15 µM | 11.5 µM | 6.7 µM | Non-toxic | Non-toxic | Non-toxic | Active | 0.389 µM | 0.013 µM | Active |  |  | 5.3 µM |  |  |  |  |  | 
 | Cc1nc2cc(/C=C/C(=O)NO)ccc2c(=O)n1Cc1ccccc1 | > 25 µM | 20.9 µM | 8.2 µM | Non-toxic | Non-toxic | Non-toxic | Active | 1.45 µM | 0.024 µM | Active | > 50 µM | 2.44 µM | 8.2 µM | 4 µM | 1.27 µM |  |  |  | 
 | CCc1nc2cc(/C=C/C(=O)NO)ccc2c(=O)n1CCCc1ccccc1 | 11.7 µM | 6.6 µM | 10 µM | Non-toxic | Non-toxic | Non-toxic | Active | 3.2 µM | 0.033 µM | Active |  | 5.59 µM | 7 µM | > 12 µM | 1.33 µM |  |  | inactive | Dose-dependent effect
 | CCc1nc2ccc(Cc3ccc(C(=O)NO)cc3)cc2c(=O)n1CCc1ccccc1 | 18.4 µM | 9.4 µM | 4.1 µM | Non-toxic | Non-toxic | Non-toxic | Active | 1.05 µM | 0.011 µM | Active |  | 0.656 µM | 2.9 µM | 3.61 µM | 0.099 µM |  |  |  | 
 | CCc1nc2cc(/C=C/C(=O)NO)ccc2c(=O)n1CCc1ccc(OC)cc1 | > 25 µM | 7.2 µM | 20.6 µM | Non-toxic | Non-toxic | Non-toxic |  | 1.81 µM | 0.041 µM |  |  | 3.91 µM | 20.6 µM | 4.78 µM | 0.594 µM |  |  |  | 
 | CCc1nc2cc(/C=C/C(=O)NO)ccc2c(=O)n1CCc1ccccc1 | 11 µM | 5.3 µM | 0.9 µM | Non-toxic | Non-toxic | Non-toxic | Active | 1.19 µM | 0.011 µM | Active | > 50 µM | 2.95 µM | 7.2 µM | 4.81 µM | 1.18 µM |  |  | inactive | Dose-dependent effect
 | CCc1nc2cc(/C=C/C(=O)NO)ccc2c(=O)n1CCc1ccc(F)cc1 | > 25 µM | 18.4 µM | 22.2 µM | Non-toxic | Non-toxic | Non-toxic | Active | 2.11 µM | 0.043 µM | Active |  | 4.25 µM | 13.9 µM | 6.88 µM | 0.891 µM |  |  |  | 
